Results published in ChEMBL document CHEMBL1201862, “PubChem BioAssay data set” (2004).
Activity calls are given as the source filed them.

Experiments:
[1] = biological target: T1, RNA-binding protein pos-1 (Caenorhabditis elegans, UniProt G5EF15); assay: inhibitors of POS-1/mex-3 RNA binding, dose response, biochemical, fluorescence polarization (AID 1964);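 also: purified POS-1 fused to maltose binding protein made in E. coli; potency of compounds blocking POS-1 binding to fluorescent RNA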
T1 sequence (G5EF15 whole entry): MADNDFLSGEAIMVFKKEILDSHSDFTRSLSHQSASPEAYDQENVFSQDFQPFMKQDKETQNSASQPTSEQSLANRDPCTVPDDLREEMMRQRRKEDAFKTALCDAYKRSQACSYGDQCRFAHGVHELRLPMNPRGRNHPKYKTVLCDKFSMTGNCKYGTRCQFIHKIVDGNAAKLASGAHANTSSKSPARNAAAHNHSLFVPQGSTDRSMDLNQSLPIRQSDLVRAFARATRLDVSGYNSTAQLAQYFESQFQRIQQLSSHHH

[2] = biological target: Glyceraldehyde-3-phosphate dehydrogenase (Homo sapiens, UniProt P04406)
[3] = biological target: T2, Zinc finger protein mex-5 (Caenorhabditis elegans, UniProt Q9XUB2); assay: MEX-5/TCR-2 RNA interaction inhibitors, dose response, biochemical, C. elegans, fluorescence polarization (AID 1960)
T2 sequence (Q9XUB2 whole entry): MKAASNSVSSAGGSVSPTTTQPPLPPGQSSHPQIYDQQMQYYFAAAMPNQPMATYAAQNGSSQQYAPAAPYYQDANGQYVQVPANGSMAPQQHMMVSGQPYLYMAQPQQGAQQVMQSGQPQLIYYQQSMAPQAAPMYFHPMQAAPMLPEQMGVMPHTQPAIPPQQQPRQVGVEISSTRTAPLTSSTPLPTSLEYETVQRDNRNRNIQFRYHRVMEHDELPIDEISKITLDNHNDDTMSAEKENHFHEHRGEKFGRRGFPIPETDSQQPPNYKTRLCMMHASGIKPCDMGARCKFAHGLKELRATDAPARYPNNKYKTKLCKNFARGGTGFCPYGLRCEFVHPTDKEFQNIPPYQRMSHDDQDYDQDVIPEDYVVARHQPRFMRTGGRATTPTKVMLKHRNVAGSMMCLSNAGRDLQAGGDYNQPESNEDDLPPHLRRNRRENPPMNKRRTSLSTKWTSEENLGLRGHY

[4] = biological target: Heat shock cognate 71 kDa protein (Homo sapiens, UniProt P11142); assay: In Vitro Hsc70 Dose Response Fluorescence Polarization Assay. [Related pubchem assays: 1072 ]
[5] = biological target: Heat shock 70 kDa protein 1A (Homo sapiens, UniProt P0DMV8); assay: Hsp70 inhibitors, SAR follow-up, biochemical, fluorescence polarization (AID 1072)
[6] = biological target: Potassium voltage-gated channel subfamily KQT member 2 (Rattus norvegicus, UniProt O88943); assay: Mode of action assay - current amplitude concentration response for derivatives of ZTZ240, a potentiator of KCNQ2 potassium channels. [Related pubchem assays: 2258 (Summary assay for the KCNQ2 potentiators.), 2239 (Primary HTS assay for KCNQ2 potentiators with 305606 compounds tested, and 1644 are found to be active.)]; assay type: functional
[7] = test system: HeLa; assay: Cytotoxicity counterscreen assay for transcriptional activators of heat shock protein 70 (Hsp70). [Related pubchem assays: 1203, 1252 ]; assay type: functional; conditions: Homo sapiens;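 also: cells exposed to compound for 16 hours before readout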
[8] = test system: BJ; assay: cytotoxicity toward BJ-TERT fibroblasts, dose response, cell-based, RAS-independent, luminescence (AID 1933); assay type: functional; conditions: Homo sapiens
[9] = biological target: Galanin receptor type 2 (Homo sapiens, UniProt O43603); assay: Dose Response cell-based high-throughput screening assay to identify antagonists of galanin receptor 2 (GALR2). [Related pubchem assays: 828, 866 ]; assay type: functional
[10] = test system: BJ; assay: cells; assay type: functional, cell-based; conditions: Homo sapiens
[11] = inhibitors of intracellular T. cruzi replication, confirmation, NIH3T3 host cells, beta-gal luminescence (AID 2044); assay type: functional, cell-based;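 also: intracellular parasites grown in NIH/3T3 mouse fibroblasts as host cells; luminescent beta-galactosidase reporter signal from transgenic T. cruzi replicating inside host cells; inhibitors lower the luminescence signal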
[12] = microbe, parasite or virus in culture; assay type: functional; conditions: Mycobacterium tuberculosis
[13] = cytotoxicity toward NIH3T3 fibroblasts, dose response, counter-screen, cell-based, ATP luminescence, mouse fibroblasts (AID 2010); assay type: functional;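 also: cells exposed to compound for about 90 hours before reading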
[14] = test system: BJ; assay: cytotoxicity toward BJ-TERT-LT-ST fibroblasts, dose response, cell-based, RAS-independent, luminescence (AID 1935); assay type: functional; conditions: Homo sapiens;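 also: BJ fibroblasts immortalized with TERT plus LT and ST oncogenes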
[15] = cytotoxicity toward DRD oncogenic fibroblasts, dose response, cell-based, non-viral oncogenic, luminescence (AID 1934); assay type: functional; conditions: Homo sapiens
[16] = Shn3 3'UTR reporter inhibitors, dose response, cell-based, Clone20 osteoblasts, firefly luciferase, cherry-picked (AID 624132); assay type: functional;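 also: firefly luciferase luminescence from reporter carrying the Shn3 3'UTR in osteoblasts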
[17] = HepG2 cell cytotoxicity, dose response, cytotoxicity control for Shn3 inhibitor project, CellTiter-Glo, cherry-picked (AID 624134); assay type: functional, cell-based
[18] = control 3'UTR Renilla luciferase suppression, dose response, counter-screen for Shn3 inhibitor project, cell-based, Clone20-Shn3RL, cherry-picked (AID 624133); assay type: functional
[19] = test system: Streptococcus sp. 'group A'; assay: growth inhibition of control SK(-) GAS strain, dose response, counter-screen for streptokinase expression inhibitor project, luminescence, kanamycin, BacTiterGlo, confirmation (AID 1900); assay type: functional, organism-based
[20] = test system: Streptococcus; assay: Luminescence Microorganism-Based Dose Response Follow up to Identify Compounds Cytotoxic to Streptococcus. [Related pubchem assays: 1677 (Project Summary), 1915, 1914, 1902 (Retest at Dose), 1900 (Counter Screen), 1662 (Primary HTS)]; assay type: functional, organism-based
[21] = biological target: T3, Streptokinase A (Streptococcus pyogenes serotype M1, UniProt P10520); assay: S. pyogenes streptokinase expression inhibitors, potency, dose response, plasminogen activation absorbance, OD405 (AID 1914); assay type: functional, Streptococcus pyogenes M1 GAS;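 also: secreted streptokinase activity via plasminogen activation per viability signal from cell pellet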
T3 sequence (P10520 whole entry): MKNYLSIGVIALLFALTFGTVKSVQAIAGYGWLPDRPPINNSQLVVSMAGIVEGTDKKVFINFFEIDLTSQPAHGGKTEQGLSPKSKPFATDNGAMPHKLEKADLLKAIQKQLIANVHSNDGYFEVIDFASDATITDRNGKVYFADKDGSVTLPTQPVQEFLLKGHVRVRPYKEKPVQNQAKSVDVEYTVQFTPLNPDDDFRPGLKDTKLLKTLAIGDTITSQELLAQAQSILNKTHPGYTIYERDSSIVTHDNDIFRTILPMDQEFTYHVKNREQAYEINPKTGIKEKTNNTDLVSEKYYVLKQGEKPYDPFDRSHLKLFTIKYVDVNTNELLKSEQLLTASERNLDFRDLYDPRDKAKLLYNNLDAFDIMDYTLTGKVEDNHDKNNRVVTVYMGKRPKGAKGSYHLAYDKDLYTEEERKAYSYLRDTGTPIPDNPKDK

[22] = growth suppression of PTEN-null colon cells, dose response, cell-based, HCT116 PTEN knockout (AID 1047); assay type: functional;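 also: HCT116 colon tumor cells with PTEN knocked out; cells exposed to compound for 60 hours before readout; potency for loss of cell viability measured by luminescence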
[23] = growth suppression of beta-catenin-knockout colon cells, dose response, cell-based, HCT116, human colon tumor (AID 1045); assay type: functional;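 also: HCT116 colon tumor cells with beta catenin knocked out; cells exposed to compound for 60 hours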
[24] = test system: Streptococcus; assay: Group A Streptococcus viability loss, dose response, counter-screen for streptokinase expression inhibitor project, luminescence, BacTiterGlo (AID 1915); assay type: functional, organism-based;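 also: potency for reduction of bacterial viability or growth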
[25] = Luminescence Cell-Based Dose Retest to Confirm Inhibitors of Cancer Stem Cells. [Related pubchem assays (depositor defined):AID2717, AID2721]; assay type: functional; conditions: Homo sapiens
[26] = test system: INS1; assay: beta cell apoptosis inhibitors, cytokine rescue, dose response, luminescence, retest (AID 449756); assay type: functional, cell-based; conditions: Rattus norvegicus;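 also: cell death triggered by IL-1 beta plus TNF-alpha plus IFN-gamma mixture; protective hits raise ATP signal compared with cytokine alone wells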
[27] = Counterscreen for IDE inhibitors: Luminescence-based cell-based high throughput dose response assay to identify compounds that are cytotoxic to HEK cells. [Related pubchem assays: 434962 (Primary screen (IDE inhibitors in singlicate)), 449730 (Counterscreen (Cytotoxicity in triplicate)), 435028 (Confirmation (IDE inhibitors in triplicate)) …; assay type: functional; conditions: HEK293
[28] = biological target: T4, Voltage-gated N-type calcium channel alpha-1B subunit/Amyloid beta A4 precursor protein-binding family A member 1 (Homo sapiens, UniProt Q00975+Q02410); assay type: protein assay
[29] = biological target: T4, Voltage-gated N-type calcium channel alpha-1B subunit/Amyloid beta A4 precursor protein-binding family A member 1; assay type: protein assay; remark: listed apart in the source
[30] = biological target: Insulin-degrading enzyme (Homo sapiens, UniProt P14735); assay: Dose Response: Fluorescence polarization-based cell-based high throughput dose response assay for inhibitors of insulin-degrading enzyme (IDE). [Related pubchem assays: 434962 (Primary screen (IDE inhibitors in singlicate)), 449730 (Counterscreen (Cytotoxicity in triplicate)), 435028 (Confirmation (IDE inhibitors in triplicate)), 434984 (Summary …; assay type: functional
Sequence of Insulin-degrading enzyme (P14735 whole entry): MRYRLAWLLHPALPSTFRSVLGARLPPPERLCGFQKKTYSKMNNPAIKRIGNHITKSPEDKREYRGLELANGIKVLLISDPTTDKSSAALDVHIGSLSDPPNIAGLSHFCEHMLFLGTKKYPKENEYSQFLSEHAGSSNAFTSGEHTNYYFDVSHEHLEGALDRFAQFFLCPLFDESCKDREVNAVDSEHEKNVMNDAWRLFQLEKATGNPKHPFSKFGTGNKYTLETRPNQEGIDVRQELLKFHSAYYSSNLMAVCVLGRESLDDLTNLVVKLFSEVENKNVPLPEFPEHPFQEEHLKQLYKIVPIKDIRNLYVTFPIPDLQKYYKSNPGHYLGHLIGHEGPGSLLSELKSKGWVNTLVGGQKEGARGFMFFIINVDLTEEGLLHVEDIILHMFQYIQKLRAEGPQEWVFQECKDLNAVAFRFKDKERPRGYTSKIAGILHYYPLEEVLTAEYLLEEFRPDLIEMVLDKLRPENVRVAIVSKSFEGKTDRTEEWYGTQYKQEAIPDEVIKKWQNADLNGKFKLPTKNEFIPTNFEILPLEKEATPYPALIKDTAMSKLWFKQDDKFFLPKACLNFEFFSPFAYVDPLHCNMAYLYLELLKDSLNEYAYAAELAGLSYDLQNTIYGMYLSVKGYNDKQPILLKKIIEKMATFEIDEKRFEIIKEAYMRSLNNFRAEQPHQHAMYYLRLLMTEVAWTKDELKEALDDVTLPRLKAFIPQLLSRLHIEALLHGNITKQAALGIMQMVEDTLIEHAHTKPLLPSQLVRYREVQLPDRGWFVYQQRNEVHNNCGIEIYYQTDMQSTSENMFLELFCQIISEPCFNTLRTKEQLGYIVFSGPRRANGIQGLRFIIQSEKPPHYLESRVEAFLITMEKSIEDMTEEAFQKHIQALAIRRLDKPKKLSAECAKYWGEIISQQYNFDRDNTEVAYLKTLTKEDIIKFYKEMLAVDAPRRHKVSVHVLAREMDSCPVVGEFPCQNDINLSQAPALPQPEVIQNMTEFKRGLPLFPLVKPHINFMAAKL

T4 sequence (Q00975 whole entry): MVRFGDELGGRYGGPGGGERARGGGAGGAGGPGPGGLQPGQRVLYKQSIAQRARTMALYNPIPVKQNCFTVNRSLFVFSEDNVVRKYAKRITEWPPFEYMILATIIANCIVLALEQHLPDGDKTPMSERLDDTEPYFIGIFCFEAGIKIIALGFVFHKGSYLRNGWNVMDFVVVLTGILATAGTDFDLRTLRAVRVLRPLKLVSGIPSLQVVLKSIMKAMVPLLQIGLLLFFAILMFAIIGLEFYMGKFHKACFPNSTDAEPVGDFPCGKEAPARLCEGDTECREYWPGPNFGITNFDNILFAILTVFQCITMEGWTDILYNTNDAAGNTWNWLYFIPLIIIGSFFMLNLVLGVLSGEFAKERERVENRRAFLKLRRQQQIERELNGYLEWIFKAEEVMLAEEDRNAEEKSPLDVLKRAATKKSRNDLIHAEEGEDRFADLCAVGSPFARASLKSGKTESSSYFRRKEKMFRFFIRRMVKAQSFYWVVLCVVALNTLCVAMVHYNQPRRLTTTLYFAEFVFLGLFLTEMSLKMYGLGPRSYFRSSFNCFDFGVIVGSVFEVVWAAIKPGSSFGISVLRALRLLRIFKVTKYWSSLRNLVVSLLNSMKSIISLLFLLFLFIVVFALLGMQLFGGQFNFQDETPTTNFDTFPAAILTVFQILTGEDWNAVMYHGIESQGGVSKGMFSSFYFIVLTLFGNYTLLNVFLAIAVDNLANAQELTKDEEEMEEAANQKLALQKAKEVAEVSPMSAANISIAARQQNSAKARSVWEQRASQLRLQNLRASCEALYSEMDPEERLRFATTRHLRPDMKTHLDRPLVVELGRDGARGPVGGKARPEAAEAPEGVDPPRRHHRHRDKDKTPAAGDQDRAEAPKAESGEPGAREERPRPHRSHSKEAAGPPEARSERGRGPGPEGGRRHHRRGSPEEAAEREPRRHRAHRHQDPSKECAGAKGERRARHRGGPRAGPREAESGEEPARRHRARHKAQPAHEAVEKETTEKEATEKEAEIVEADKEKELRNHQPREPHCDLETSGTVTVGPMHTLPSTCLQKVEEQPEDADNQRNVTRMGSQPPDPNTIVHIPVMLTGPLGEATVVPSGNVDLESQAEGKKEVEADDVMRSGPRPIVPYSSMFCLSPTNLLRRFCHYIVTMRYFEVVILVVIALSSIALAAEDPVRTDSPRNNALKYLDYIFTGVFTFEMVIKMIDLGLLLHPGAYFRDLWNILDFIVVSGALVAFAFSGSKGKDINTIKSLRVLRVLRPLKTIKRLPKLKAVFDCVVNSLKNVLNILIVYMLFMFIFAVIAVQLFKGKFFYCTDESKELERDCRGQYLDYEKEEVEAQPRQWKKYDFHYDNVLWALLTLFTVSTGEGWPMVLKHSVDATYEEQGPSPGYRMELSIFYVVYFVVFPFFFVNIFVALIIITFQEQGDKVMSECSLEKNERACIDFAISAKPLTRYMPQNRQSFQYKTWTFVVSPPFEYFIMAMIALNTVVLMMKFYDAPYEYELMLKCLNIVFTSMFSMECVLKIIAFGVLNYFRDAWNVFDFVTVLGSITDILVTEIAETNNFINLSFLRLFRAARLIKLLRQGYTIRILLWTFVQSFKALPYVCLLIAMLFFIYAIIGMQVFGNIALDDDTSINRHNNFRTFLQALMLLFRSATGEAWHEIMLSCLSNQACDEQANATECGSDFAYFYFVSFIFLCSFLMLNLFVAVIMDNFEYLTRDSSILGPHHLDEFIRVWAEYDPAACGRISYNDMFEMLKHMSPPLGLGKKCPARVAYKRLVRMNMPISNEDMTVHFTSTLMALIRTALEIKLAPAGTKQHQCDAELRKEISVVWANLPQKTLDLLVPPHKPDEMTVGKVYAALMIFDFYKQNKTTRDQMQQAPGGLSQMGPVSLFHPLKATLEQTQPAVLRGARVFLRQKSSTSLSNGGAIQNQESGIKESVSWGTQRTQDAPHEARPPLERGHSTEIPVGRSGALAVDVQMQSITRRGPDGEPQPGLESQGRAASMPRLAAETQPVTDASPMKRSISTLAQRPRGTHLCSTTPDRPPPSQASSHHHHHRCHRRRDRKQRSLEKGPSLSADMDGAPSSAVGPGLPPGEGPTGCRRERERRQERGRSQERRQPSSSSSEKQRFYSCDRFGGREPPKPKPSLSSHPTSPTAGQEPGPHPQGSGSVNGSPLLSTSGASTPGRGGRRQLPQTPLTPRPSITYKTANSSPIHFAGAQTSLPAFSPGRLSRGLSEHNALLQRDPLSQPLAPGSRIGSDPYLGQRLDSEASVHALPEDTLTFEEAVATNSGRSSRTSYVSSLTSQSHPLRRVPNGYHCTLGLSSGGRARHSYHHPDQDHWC
T4 sequence (Q02410 whole entry): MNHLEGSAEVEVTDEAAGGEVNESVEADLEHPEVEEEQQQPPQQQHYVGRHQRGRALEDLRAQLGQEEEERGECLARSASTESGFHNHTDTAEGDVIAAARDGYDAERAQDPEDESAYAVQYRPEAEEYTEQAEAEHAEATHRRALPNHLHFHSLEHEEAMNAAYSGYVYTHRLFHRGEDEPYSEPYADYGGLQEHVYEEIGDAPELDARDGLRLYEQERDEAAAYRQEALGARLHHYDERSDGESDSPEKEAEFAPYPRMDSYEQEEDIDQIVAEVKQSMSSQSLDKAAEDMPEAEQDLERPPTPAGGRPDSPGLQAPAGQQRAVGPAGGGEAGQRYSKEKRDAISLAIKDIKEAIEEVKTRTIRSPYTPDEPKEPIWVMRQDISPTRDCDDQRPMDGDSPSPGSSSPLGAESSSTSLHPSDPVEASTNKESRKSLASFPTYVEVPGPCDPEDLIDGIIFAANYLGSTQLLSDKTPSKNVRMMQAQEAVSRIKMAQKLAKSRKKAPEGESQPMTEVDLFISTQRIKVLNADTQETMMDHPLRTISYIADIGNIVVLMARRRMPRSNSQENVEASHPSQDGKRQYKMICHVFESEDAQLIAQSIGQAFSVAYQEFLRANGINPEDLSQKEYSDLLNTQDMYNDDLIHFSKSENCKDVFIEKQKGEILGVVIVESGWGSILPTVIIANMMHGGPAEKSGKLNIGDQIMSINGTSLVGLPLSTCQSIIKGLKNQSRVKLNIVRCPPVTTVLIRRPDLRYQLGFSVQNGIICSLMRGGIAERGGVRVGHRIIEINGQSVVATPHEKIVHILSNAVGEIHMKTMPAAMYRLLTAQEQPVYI
Sequence of Heat shock cognate 71 kDa protein (P11142 whole entry): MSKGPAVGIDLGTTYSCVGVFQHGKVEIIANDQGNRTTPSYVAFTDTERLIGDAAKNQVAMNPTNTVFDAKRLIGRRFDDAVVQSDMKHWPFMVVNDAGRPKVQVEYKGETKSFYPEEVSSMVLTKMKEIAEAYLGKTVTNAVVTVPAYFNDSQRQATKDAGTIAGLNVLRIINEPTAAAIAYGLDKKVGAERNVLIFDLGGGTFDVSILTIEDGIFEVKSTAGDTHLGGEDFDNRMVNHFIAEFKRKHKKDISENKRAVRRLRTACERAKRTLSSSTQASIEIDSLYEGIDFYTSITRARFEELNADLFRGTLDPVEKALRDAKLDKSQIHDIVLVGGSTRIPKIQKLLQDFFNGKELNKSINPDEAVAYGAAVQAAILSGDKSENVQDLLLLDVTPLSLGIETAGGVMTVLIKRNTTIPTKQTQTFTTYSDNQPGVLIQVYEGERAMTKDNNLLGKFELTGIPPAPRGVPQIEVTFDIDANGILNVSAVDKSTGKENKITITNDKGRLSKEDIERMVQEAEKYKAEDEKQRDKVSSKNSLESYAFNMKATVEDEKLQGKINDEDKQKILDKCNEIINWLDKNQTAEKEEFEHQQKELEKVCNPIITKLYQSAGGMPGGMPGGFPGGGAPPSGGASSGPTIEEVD

In the case of `O=C(O)C1Nc2c(C(F)(F)F)ccc(Cl)c2C2C=CCC12` (stereo not given), the EC50 [1] is reported as 110 µM (active), the IC50 [2] is reported as > 100 µM (not active) and the EC50 [3] is reported as 61.5 µM (active). The IC50 [4] was > 100 µM (not active) and the IC50 [5] was > 100 µM (not active).

In the case of `O=C(Nc1ccc(Br)nc1)c1cccc(F)c1`, the EC50 [6] is reported as 1.65 µM (active).

With `O=C(/C=C/Sc1nc[nH]n1)c1ccc(Cl)cc1` the CC50 [7] was > 3.67 µM (not active), the EC50 [8] was 4.19 µM (active) and the IC50 [9] was 10.9 µM (not active). For the same compound, the EC50 [10] was 6.44 µM (inconclusive), the EC50 [11] was 1.99 µM (active) and the CC50 [12] was 25.4 µM (active). The EC50 [13] was 3.28 µM (active), the EC50 [14] was 12.3 µM (active) and the EC50 [15] was 5.81 µM (active). For the same compound, the AC50 [16] was 9.76 µM (active), the AC50 [17] was 31.2 µM (active) and the AC50 [18] was 14.4 µM (active).

In the case of `O=C(Nc1cc(S(=O)(=O)Nc2ccc(Cl)cc2)ccc1N1CCCCC1)c1ccc(F)cc1`, the EC50 [19] is reported as 10.2 µM (active), the EC50 [20] is reported as 150 µM (active) and the EC50 [21] is reported as 5.17 µM (active). For the same compound, the EC50 [22] was 29.4 µM (active), the EC50 [23] was 21 µM (active) and the EC50 [24] was > 150 µM (not active). The AC50 [25] was 4.98 µM (active) and the AC50 [26] was 8.05 µM (active).

For `Cc1cc(C)c2c(=O)n(CC(=O)NCCCN3CCOCC3)sc2n1`, the IC50 [27] was 21.2 µM (not active), the IC50 [28] was 10.8 µM (active) and the IC50 [29] was 46 µM (active). For the same compound, the IC50 [30] was 7.16 µM (active).
